Source: patent US20050089516A1, “Skin vitalizing composition for external use anti-aging preparation” (SHISEIDO COMPANY, LTD., priority 2002, published 2005)

How the values were obtained:
type VII collagen = test: Artificial skin culture, immunostaining with anti-type VII collagen antibody; assay type: cell-based, human; settings: Example 1; culturing for 2 weeks; 10 μM compound A, 10 μg/ml aprotinin, 1 ng/ml interleukin-1β, 1 ng/ml TGF-α, 100 ng/ml PDGF; versus no-compound control
Procedure: (§1) Collagen gel was obtained by preparing 10 ml of a human dermal fibroblasts (0.3-1×10^5 cell/ml)-suspended collagen solution (using I-AC collagen manufactured by Koken Co., Ltd.) on ice, followed by gelling the collagen in a 60 mm Petri dish at 37° C. The gel was then peeled from the bottom of the dish, the collagen gel was placed on metal, and a glass ring (12 mm inner diameter) was placed over the gel. A 0.4 ml portion of a human foreskin-derived epidermal keratinocyte (1×10^6/ml) suspension (KGM-DMEM (1:1) mixed medium containing 5% fetal bovine serum) was poured into the glass ring while avoiding leakage. The keratinocytes were allowed to adhere in a CO2 incubator overnight, and the ring was removed on the following day. The medium was filled in up to the border of the epidermal layer, and culturing was continued while exposing the epidermal layer to the air, to prepare a multilayered skin model with epidermis having a horny layer. […]

[1] = test system: basement membrane structure directly under the epidermis; test: Transmission electron microscopy of artificial skin; assay type: cell-based, human; settings: Example 1; 10 μM compound A, with or without 10 μg/ml aprotinin
Procedure: as §1

COc1ccc(S(=O)(=O)N(Cc2cccnc2)C(C(=O)NO)C(C)C)cc1.Cl (centres unmarked) [compound A]
staining of type VII collagen directly under the basal keratinocytes (type VII collagen): weak but definite staining
basement membrane structure by transmission electron microscope [1]: induced formation of the basement membrane
